Source: ChEMBL document CHEMBL3352684, “Discovery of MK-3697: a selective orexin 2 receptor antagonist (2-SORA) for the treatment of insomnia” (Bioorg Med Chem Lett, 2014)
Converted amounts (≈) assume the structure as drawn.

What was measured:
[1] = biological target: T1, Orexin/Hypocretin receptor type 1 (Homo sapiens, UniProt O43613, I408V); assay: Displacement of N-cyclobutyl-5-methyl-N-(2-([3H]-1-methyl-1H-benzo[d]imidazol-2-ylthio)ethyl)-2-(2H-1,2,3-triazol-2-yl)benzamide from human OX1R I408V mutant expressed in CHO cells by topcount analysis; assay type: cell-based
[2] = system: CHO; assay: Selectivity ratio of IC50 for human OX1R Ile408Val mutant expressed in CHO cells to IC50 for human OX2R expressed in CHO cells; assay type: cell-based
[3] = system: CHO; assay: Selectivity ratio of Ki for human OX1R I408V mutant expressed in CHO cells to Ki for human OX2R expressed in CHO cells; assay type: cell-based
[4] = biological target: T2, Orexin receptor type 2 (Homo sapiens, UniProt O43614); assay: Displacement of (S)-N-(2-(1H-pyrrol-1-yl)phenyl)-1-(2-([3H]-1-methyl-1H-benzo[d]imidazol-2-ylthio)acetyl)pyrrolidine-2-carboxamide from human OX2R expressed in CHO cells after 3 hrs by topcount analysis; assay type: cell-based
T2 sequence (O43614 whole entry): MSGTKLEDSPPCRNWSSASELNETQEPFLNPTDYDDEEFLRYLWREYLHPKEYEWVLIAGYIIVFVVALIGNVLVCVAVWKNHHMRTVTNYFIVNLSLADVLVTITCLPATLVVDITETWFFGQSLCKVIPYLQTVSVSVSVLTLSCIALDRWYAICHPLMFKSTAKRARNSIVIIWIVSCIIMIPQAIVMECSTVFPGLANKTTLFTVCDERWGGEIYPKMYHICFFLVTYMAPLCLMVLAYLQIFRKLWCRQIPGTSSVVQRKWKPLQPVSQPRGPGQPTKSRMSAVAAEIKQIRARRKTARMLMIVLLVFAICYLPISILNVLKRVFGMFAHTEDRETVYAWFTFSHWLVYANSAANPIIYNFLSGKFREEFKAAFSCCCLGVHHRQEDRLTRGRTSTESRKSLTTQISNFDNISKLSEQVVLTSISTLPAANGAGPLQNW

[5] = biological target: T1, Orexin/Hypocretin receptor type 1; assay: Antagonist activity at human OX1R I408V mutant expressed in CHO cells assessed as inhibition of Ala-6,12-orexinA-induced effect after 5 mins by FLIPR assay; assay type: cell-based
[6] = biological target: T2, Orexin receptor type 2; assay: Antagonist activity at human OX2R expressed in CHO cells assessed as inhibition of Ala-6,12-orexinA-induced effect after 5 mins by FLIPR assay; assay type: cell-based
[7] = Clearance in dog with cassette dosing; assay type: ADME, organism-based, Canis lupus familiaris; settings: in vivo
[8] = biological target: T3, CYP3A4 (Homo sapiens, UniProt P08684); assay: Ratio of Kinact to Ki for CYP3A4 (unknown origin); assay type: ADME
[9] = biological target: Cytochrome P450 3A4 (Homo sapiens, UniProt P08684); assay: (§1) Time dependent inhibition of CYP3A4 (unknown origin); assay type: ADME
[10] = biological target: T3, CYP3A4; assay: as §1; assay type: ADME; settings: human
[11] = Drug degradation in buffer assessed as compound remaining at pH 2 after 24 hrs; assay type: physicochemical; settings: for remaining at 24 h: pH 2, read-out: Stability
[12] = Solubility of the compound in buffer at pH 7; assay type: physicochemical
[13] = Solubility of the compound in buffer at pH 2; assay type: physicochemical

T3 sequence (P08684 whole entry): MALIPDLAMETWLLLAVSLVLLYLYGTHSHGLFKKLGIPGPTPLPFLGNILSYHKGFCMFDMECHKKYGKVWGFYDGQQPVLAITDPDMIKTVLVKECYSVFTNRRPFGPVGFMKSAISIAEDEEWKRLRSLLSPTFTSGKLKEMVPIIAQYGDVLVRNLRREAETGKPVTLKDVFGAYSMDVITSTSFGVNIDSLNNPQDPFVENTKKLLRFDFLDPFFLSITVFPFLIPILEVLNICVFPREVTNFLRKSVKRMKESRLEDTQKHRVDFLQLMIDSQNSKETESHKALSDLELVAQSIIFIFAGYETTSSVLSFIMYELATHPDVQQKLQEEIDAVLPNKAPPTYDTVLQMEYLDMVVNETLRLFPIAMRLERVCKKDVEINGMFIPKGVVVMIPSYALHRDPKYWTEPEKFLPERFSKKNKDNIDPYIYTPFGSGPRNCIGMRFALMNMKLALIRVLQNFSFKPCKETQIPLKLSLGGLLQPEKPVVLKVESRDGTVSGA
T1 sequence (O43613 whole entry I408V): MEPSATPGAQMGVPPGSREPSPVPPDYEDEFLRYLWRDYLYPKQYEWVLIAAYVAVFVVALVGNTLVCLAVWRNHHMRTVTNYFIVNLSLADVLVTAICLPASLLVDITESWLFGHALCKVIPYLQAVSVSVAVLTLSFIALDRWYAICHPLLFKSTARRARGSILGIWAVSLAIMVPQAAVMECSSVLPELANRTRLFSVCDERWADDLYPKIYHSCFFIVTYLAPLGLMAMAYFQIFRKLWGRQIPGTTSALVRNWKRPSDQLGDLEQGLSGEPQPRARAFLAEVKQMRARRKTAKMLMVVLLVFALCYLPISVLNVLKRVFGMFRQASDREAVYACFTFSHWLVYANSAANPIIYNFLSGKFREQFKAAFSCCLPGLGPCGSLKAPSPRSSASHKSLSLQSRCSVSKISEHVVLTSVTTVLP
Sequence of Cytochrome P450 3A4 (P08684 whole entry): as the sequence (P08684 whole entry) above

Ki [1] | Ki [4] | IC50 [5] | IC50 [6] | clearance [7] | kinact/KI [8] | Ki [9] | kinact [10] | Stability ([11]; pH 2, 24 h) | solubility [12] | solubility [13] | remaining at 24 h [11] | SMILES | Ratio IC50 [2] | Ratio Ki [3]
930 nM | 4.1 nM | 10000 nM | 167 nM |  |  |  |  |  |  |  |  | COc1ccc(CNC(=O)c2cc(-c3cncc(C)c3)ncc2-c2cnn(C)c2)nc1OC | > 60 | 227
1500 nM | 75 nM | 10000 nM | 3500 nM | 15 mL/min/kg |  |  |  |  |  |  |  | COc1ccc(CNC(=O)c2cc(-c3cncc(C)c3)ncc2N2CCOCC2)nc1OC | > 3 | 20
4100 nM | 9 nM | > 10000 nM | 420 nM |  |  |  |  |  |  |  |  | COc1ccc(CNC(=O)c2cc(-c3cncc(C)c3)nc3onc(-c4ccccc4)c23)nc1OC | > 24 | 456
8500 nM |  | > 20000 nM | 31 nM | 37 mL/min/kg |  |  |  |  |  |  |  | COc1ccc(CNC(=O)c2nc(-c3cncc(C)c3)cnc2-c2ccccc2)nc1OC | > 645 | 6070
15000 nM | 11 nM | > 10000 nM | 170 nM |  |  |  |  |  |  |  |  | COc1ccc(CNC(=O)c2cc(-c3cncc(C)c3)nnc2-c2ccccc2)nc1OC | > 59 | 1360
 |  |  |  |  | 200 M⁻¹ s⁻¹ | 9500 nM | 0.00183 s⁻¹ |  |  |  |  | COc1ccc(CNC(=O)c2cc(-c3cncc(Cl)c3)cnc2-c2ccccn2)nc1OC [MK-1064] |  | 
12000 nM | 140 nM | > 10000 nM | 1060 nM |  |  |  |  |  |  |  |  | COc1ccc(CNC(=O)c2sc(-c3cncc(C)c3)nc2-c2cccc(F)c2)nc1OC | > 9 | 86
2700 nM | 0.5 nM | 2800 nM | 21 nM | 15 mL/min/kg | 217 M⁻¹ s⁻¹ | 5600 nM | 0.000217 s⁻¹ | Stable |  |  |  | COc1ccc(CNC(=O)c2cc(-c3cncc(C)c3)ncc2-c2ccccc2)nc1OC | 133 | 5400
7900 nM | 1.4 nM | 4650 nM | 36 nM |  |  |  |  |  |  |  |  | COc1ccc(CNC(=O)c2cc(-c3cncc(C)c3)ncc2-c2ccccn2)nc1OC | 129 | 5640
14000 nM | 4.5 nM | 10000 nM | 37 nM |  |  |  |  |  |  |  |  | COc1ccc(CNC(=O)c2cc(-c3cncc(C)c3)ncc2N2CCCC2)nc1OC | > 270 | 3110
 |  |  |  |  |  |  |  |  | 10 µM (≈ 4.61 µg/mL) | 16 µM (≈ 7.37 µg/mL) | 100% | COc1ccc(CNC(=O)c2cc(-c3cncc(Cl)c3)cnc2-c2ccccc2)nc1OC |  | 
18000 nM | 10 nM | 10000 nM | 83 nM | 19 mL/min/kg |  |  |  |  |  |  |  | COc1ccc(CNC(=O)c2cc(-c3cncc(C)c3)ncc2N2CCC2)nc1OC | > 120 | 1800
17000 nM | 5.2 nM | 10000 nM | 57 nM | 19 mL/min/kg |  |  |  |  |  |  |  | COc1ccc(CNC(=O)c2cc(-c3cncc(C)c3)ncc2-c2cncc(F)c2)nc1OC | 192 | 3270
23000 nM | 11 nM | > 10000 nM | 120 nM | 47 mL/min/kg |  |  |  |  |  |  |  | COc1ccc(CNC(=O)c2nc(-c3cncc(C)c3)ncc2-c2ccccc2)nc1OC | > 83 | 
8600 nM | 1.4 nM | 3000 nM | 25 nM | 17 mL/min/kg |  |  |  |  |  |  |  | COc1ccc(CNC(=O)c2cc(-c3cncc(C)c3)ncc2-c2ccccc2F)nc1OC | 120 | 6140
1000 nM | 0.3 nM | 1540 nM | 14 nM | 51 mL/min/kg |  |  |  |  |  |  |  | COc1ccc(CNC(=O)c2cc(-c3cncc(C)c3)ccc2-c2ccccc2)nc1OC | 110 | 3330
4000 nM |  | 1950 nM | 16 nM | 18 mL/min/kg |  |  |  |  |  |  |  | COc1ccc(CNC(=O)c2cc(-c3cncc(C)c3)ncc2-c2cccc(F)c2)nc1OC | 122 | 4440
2400 nM | 43 nM |  |  | 28 mL/min/kg |  |  |  |  |  |  |  | COc1ccc(CNC(=O)c2nc(-c3cncc(C)c3)ccc2-c2ccccc2)nc1OC |  | 56
720 nM | 0.3 nM | 2000 nM | 13 nM | 27 mL/min/kg |  |  |  |  | 61 µM (≈ 26.9 µg/mL) | 180 µM (≈ 79.3 µg/mL) | 100% | COc1ccc(CNC(=O)c2cc(-c3cncc(C)c3)cnc2-c2ccccc2)nc1OC | 154 | 2400
31000 nM | 7.6 nM | 10000 nM | 109 nM | 24 mL/min/kg |  |  |  |  |  |  |  | COc1ccc(CNC(=O)c2cc(-c3cncc(C)c3)ncc2-c2cnccn2)nc1OC | > 92 | 4080
39000 nM | 193 nM | 15000 nM | 1450 nM |  |  |  |  |  |  |  |  | COc1ccc(CNC(=O)c2cc(-c3cncc(C)c3)ncc2-c2ccnnc2)nc1OC | > 10 | 202
